What was measured:
[1] = tested on: cultured primary cortical neurons; assay: Mitochondrial membrane potential (TMRM) after A23187 in cultured primary cortical neurons; type: cell-based; settings: rat E14 cortical neurons
Excerpt: (§1) FIG. 23: Example 45 Compound Preserves Mitochondrial Membrane Potential in Cultured Primary Cortical Neurons. Cortical neurons cultures from rats on embryonic day 14 were loaded with tetramethylrhodamine methyl ester (TMRM) dye after 6 days of maturation. […] The remaining panels are from cells that were exposed to the calcium ionophore A23187 at time zero. With vehicle-alone, cortical neuron mitochondrial membrane potential was rapidly lost after exposure to the ionophore. […] Results shown are representative of 10 fields analyzed in each of 2 experimental runs for all conditions.
as §1, with “It was also examined whether” for “FIG. 23:”, “preserves mitochondrial membrane potential” for “Preserves Mitochondrial Membrane Potential”, “cultured primary cortical neurons (FIG. 23).” for “Cultured Primary Cortical Neurons.”

[2] = tested on: aged Fisher 344 rats; assay: Aged rats: hippocampal neurogenesis, Morris water maze, apoptosis, body weight; type: in vivo, rat (Fisher 344)
Protocol: FIG. 20A, FIG. 20B, FIG. 20C, FIG. 20D and FIG. 20E: Effect of Example 45 Compound in aged rats. (FIG. 20A) Example 45 Compound (20 mg/kg/d, i.p.) and BrdU (50 mg/kg, i.p.) were administered daily for 7 days to 12-18 month old Fisher 344 rats (n=4 in each group). P7C3 promoted neural precursor cell proliferation by roughly 5 fold compared to vehicle. (*p<0.001, Students t test). […] These micrographs were taken at the same magnification. Scale bar=[…]. Data are expressed as mean+/−SEM. […] Data are expressed as mean+/−SEM. […] Data are expressed as mean+/−SEM.
Many more of the BrdU-labeled cells were noted to have migrated into the granular layer in Example 45 Compound-treated rats in comparison to vehicle treated animals, consistent with their functional incorporation into the dentate gyrus as properly wired neurons. The scale bar represents […]. […] The scale bar represents […]. […] In all graphs data are expressed as mean±SEM.
It was first evaluated whether Example 45 Compound would enhance hippocampal neurogenesis in aged rats as it does in adult mice. Rats were injected with a daily, IP dose of either […] of Example 45 Compound or vehicle, coinjected with a daily dose of BrdU, and then sacrificed after 7 days for immunohistochemistry. […] Having observed proneurogenic efficacy of Example 45 Compound in this short term assay, it was then tested whether prolonged administration of Example 45 Compound might ameliorate age-related decline in cognition by subjecting 18-month-old rats to daily administration of either […] of Example 45 Compound or vehicle only for 2 months. Animals of both groups were further subjected to weekly IP administration of BrdU (50 mg/kg) for later immunohistochemical measurements of hippocampal neurogenesis. As a control, both Example 45 Compound- and vehicle-treated groups were confirmed to display equal ability to physically participate in the task, and learn the task, as shown by decreased latency times to find the hidden platform over the 5 day training period, both before and after 2 months of treatment (FIG. 20B). Moreover, neither swim speed (FIG. 20C) nor locomotor activity (FIG. 20D) varied with age or treatment paradigm.
After 2 months of compound or vehicle administration, cognitive ability was assessed blind to treatment group by removing the goal platform. Animals of the Example 45 Compound-treated group retained a statistically significant improvement in ability to navigate to the region of the missing platform, as evidenced by performance in the probe test.
After behavioral testing, animals were sacrificed for immunohistochemical detection of BrdU and CCSP3. […] Next it was tested whether Example 45 Compound-mediated preservation of body weight in aged rats operates via central or peripheral modes of action.

[3] = tested on: Ghsr-null and wild-type mice; assay: Social interaction test after CSDS; type: in vivo, mouse
Excerpt: FIG. 41. Effects of P7C3 on CSDS-induced depressive-like behavior, as measured by the social interaction test. (a, b) Times spent in the interaction zone with target present for wild-type (a) and Ghsr-null (b) mice. (c, d) Times spent in the corners by wild-type (c) and Ghsr-null (d) mice. Group sizes indicated. *P<0.05, **P<0.01, as compared to respective vehicle-treated control group.
Next, P7C3 and two chemical analogs were employed to investigate whether P7C3-mediated preservation of ventral DG neurogenesis during CSDS might correlate with an antidepressant-like behavioral effect. […] Conversely, the analog P7C3-S184 (Example 178) replaces bromines on the carbazole moiety with chlorines and the aniline moiety with a naphthyl amine, leaving the analog completely devoid of neuroprotective activity.
CSDS was performed similar to methods used previously in the lab (J. C. Chuang et al., Ghrelin mediates stress-induced food-reward behavior in mice. J Clin Invest 121, 2684 (2011)). Test mice were housed individually in large cages paired with a CD1 aggressor mouse, separated by a plastic divider with holes so as to allow sensory contact. For 5 min a day, the plastic divider was removed, exposing test mice to the CD1 mouse. After 5 min of exposure to the CD1 mouse, test mice were again separated and paired with a new CD1 mouse for the remainder of the 24 hours. This process was repeated for 10 days. Following the 5 min sensory contact on the 10th day, mice were separated and singly housed prior to social interaction test. Control mice were housed in equivalent cages with members of the same strain and handled daily. The social interaction test consists of placing mice in an arena with a small cage at one end. The movements of test mice were tracked for 2.5 min in the absence of another mouse, followed by 2.5 min in the presence of a novel CD1 mouse, or the “target”. Ethovision 3.0 software (Noldus, Leesburg, Va.) measured the duration spent in the interaction zone or in the corners. As done previously, data is presented as time spent in the interaction zone when the target is present or time spent in the corners when the target is present (J. C. Chuang et al., Ghrelin mediates stress-induced food-reward behavior in mice. J Clin Invest 121, 2684 (2011)).

Row | Compound | dose giving full protection of mitochondrial membrane potential [1] | apoptotic cells in the dentate gyrus ([2]; after 2 months of treatment) | level of BrdU-positive neurons in the dentate gyrus versus vehicle ([2]; after 2 months of treatment) | postfasting blood glucose levels ([2]; aged rats) | body weight with aging ([2]; aged rats, 2 months of treatment) | increase in BrdU labeling in the dentate gyrus relative to vehicle ([2]; daily IP for 7 days, aged rats) | crossings of the location previously containing the platform ([2]; probe test after 2 months of treatment) | percentage of time in the general goal area (quadrant previously containing the platform) ([2]; probe test after 2 months of treatment, vehicle 28.1%±2.6%) | depression-like behavior, social interaction test ([3]; CSDS-exposed Ghsr-null mice) | depression-like behavior, social interaction test ([3]; CSDS-exposed wild-type mice) | neural precursor cell proliferation (BrdU) compared to vehicle ([2]; daily i.p. for 7 days, 12-18 month old Fisher 344 rats) | social interaction test performance ([3]; non-CSDS-exposed control mice)
1 | OC(CNc1ccccc1)Cn1c2ccc(Br)cc2c2cc(Br)ccc21 (centres unmarked) [Example 45 Compound] | 1 mM | statistically significant reduction in the number of CCSP3-positive cells | 3 fold | had no effect on postfasting blood glucose levels | helped rats maintain stable body weight with aging | 500% | significantly more often than vehicle-treated rats | 35.5%±2.2% |  |  |  | 
2 | OC(CNc1cccc2ccccc12)Cn1c2ccc(Cl)cc2c2cc(Cl)ccc21 (centres unmarked) [Example P7C3-S184] |  |  |  |  |  |  |  |  | had no effect on stress-induced depressive-like behavior in either genotype | had no effect on stress-induced depressive-like behavior in either genotype |  | 
3 | OC(CNc1ccccc1)Cn1c2ccc(Br)cc2c2cc(Br)ccc21 (centres unmarked) [Example P7C3] |  |  |  |  |  |  |  |  | showed antidepressant efficacy | had no significant effect on depression-like behavior | roughly 5 fold | Neither P7C3 nor the two tested analogs influenced social interaction test performance

From patent publication US10183011B2, “Anti-depression compounds” (Board of Regents of the University of Texas System, priority 2009, dated 2019)
